Test results: ChEMBL document CHEMBL1201862, “PubChem BioAssay data set” (2004)
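Where inhibition never reached the appropriate level, the endpoint shown equals the highest concentration tested. Otherwise, values were interpolated linearly from a five-concentration, 48-hour dose response in 96-well plates. GI50 is the concentration that inhibits growth by half.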 Activity calls are given as the source filed them. Cut-off read from the data, not from the text of the source: active = GI50 up to about 1.1 µM and inactive = higher.

Tests used:
Assay in all cases: inhibition of tumour cell growth, NCI panel, 48 h
MOLT-4 = system: MOLT-4
MCF7 = system: MCF7
HCC 2998 = system: HCC 2998
PC-3 = system: PC-3
HOP-92 = system: HOP-92
UO-31 = system: UO-31
MDA-MB-231 = system: MDA-MB-231
SNB-75 = system: SNB-75
RXF 393 = system: RXF 393
RPMI-8226 = system: RPMI-8226
SK-OV-3 = system: SK-OV-3
SW-620 = system: SW-620
EKVX = system: EKVX
SK-MEL-2 = system: SK-MEL-2
OVCAR-4 = system: OVCAR-4
Hs-578T = system: Hs-578T
A549 = system: A549
A498 = system: A498
SK-MEL-5 = system: SK-MEL-5
LOX IMVI = system: LOX IMVI
T47D = system: T47D
NCI-H460 = system: NCI-H460
NCI-H522 = system: NCI-H522
SF-295 = system: SF-295
HOP-62 = system: HOP-62
SF-539 = system: SF-539
NCI-H226 = system: NCI-H226
NCI-H23 = system: NCI-H23
OVCAR-8 = system: OVCAR-8
ACHN = system: ACHN
IGROV-1 = system: IGROV-1
SR = system: SR
OVCAR-5 = system: OVCAR-5
MDA-N = system: MDA-N
HCT-116 = system: HCT-116
HCT-15 = system: HCT-15
SN12C = system: SN12C
COLO 205 = system: COLO 205
SNB-19 = system: SNB-19
CAKI-1 = system: CAKI-1
UACC-62 = system: UACC-62
U-251 = system: U-251
HT-29 = system: HT-29
MDA-MB-435 = system: MDA-MB-435
NCI/ADR-RES = system: NCI/ADR-RES
SK-MEL-28 = system: SK-MEL-28
M14 = system: M14
KM12 = system: KM12
OVCAR-3 = system: OVCAR-3
CCRF-CEM = system: CCRF-CEM
DU-145 = system: DU-145
Malme-3M = system: Malme-3M
786-0 = system: 786-0
SF-268 = system: SF-268
TK-10 = system: TK-10
K562 = system: K562
HL-60 = system: HL-60
UACC-257 = system: UACC-257

SMILES: CC(Cc1ccccc1)NC1=NCCO1 (stereo not drawn)
- GI50 (MOLT-4): 47 µM (inactive)
- GI50 (MCF7): > 100 µM (inactive)
- GI50 (HCC 2998): 27.6 µM (inactive)
- GI50 (PC-3): 34.8 µM (inactive)
- GI50 (HOP-92): 26.9 µM (inactive)
- GI50 (UO-31): 23.6 µM (inactive)
- GI50 (MDA-MB-231): 16.2 µM (inactive)
- GI50 (SNB-75): 43.3 µM (inactive)
- GI50 (RXF 393): 52.5 µM (inactive)
- GI50 (RPMI-8226): 37.8 µM (inactive)
- GI50 (SK-OV-3): > 100 µM (inactive)
- GI50 (SW-620): 34.3 µM (inactive)
- GI50 (EKVX): 54 µM (inactive)
- GI50 (SK-MEL-2): 39.6 µM (inactive)
- GI50 (OVCAR-4): 36.2 µM (inactive)
- GI50 (Hs-578T): 29.3 µM (inactive)
- GI50 (A549): 38.8 µM (inactive)
- GI50 (A498): 29.8 µM (inactive)
- GI50 (SK-MEL-5): 32.3 µM (inactive)
- GI50 (LOX IMVI): 18.2 µM (inactive)
- GI50 (T47D): 35.1 µM (inactive)
- GI50 (NCI-H460): 17.9 µM (inactive)
- GI50 (NCI-H522): 59.6 µM (inactive)
- GI50 (SF-295): > 100 µM (inactive)
- GI50 (HOP-62): 84.1 µM (inactive)
- GI50 (SF-539): 14 µM (inactive)
- GI50 (NCI-H226): > 100 µM (inactive)
- GI50 (NCI-H23): 24.9 µM (inactive)
- GI50 (OVCAR-8): 48.1 µM (inactive)
- GI50 (ACHN): 46 µM (inactive)
- GI50 (IGROV-1): 36 µM (inactive)
- GI50 (SR): 42.8 µM (inactive)
- GI50 (OVCAR-5): > 100 µM (inactive)
- GI50 (MDA-N): 25.9 µM (inactive)
- GI50 (HCT-116): 18 µM (inactive)
- GI50 (HCT-15): 96.4 µM
- GI50 (SN12C): 21.8 µM (inactive)
- GI50 (COLO 205): 17.5 µM (inactive)
- GI50 (SNB-19): 35.6 µM (inactive)
- GI50 (CAKI-1): > 100 µM (inactive)
- GI50 (UACC-62): 52.4 µM (inactive)
- GI50 (U-251): 25.1 µM (inactive)
- GI50 (HT-29): 20.1 µM (inactive)

SMILES: CCOP(=O)(OCC)C(c1ccc(F)cc1)N(C(=O)NC(F)(F)F)c1ccc(OC)cc1 (stereo not drawn)
- GI50 (MDA-MB-435): > 100 µM (inactive)
- GI50 (NCI/ADR-RES): > 100 µM (inactive)
- GI50 (MOLT-4): > 100 µM (inactive)
- GI50 (MCF7): > 100 µM (inactive)
- GI50 (HCC 2998): > 100 µM (inactive)
- GI50 (SK-MEL-28): > 100 µM (inactive)
- GI50 (M14): > 100 µM (inactive)
- GI50 (UO-31): > 100 µM (inactive)
- GI50 (KM12): > 100 µM (inactive)
- GI50 (MDA-MB-231): > 100 µM (inactive)
- GI50 (SNB-75): > 100 µM (inactive)
- GI50 (RXF 393): > 100 µM (inactive)
- GI50 (RPMI-8226): > 100 µM (inactive)
- GI50 (OVCAR-3): > 100 µM (inactive)
- GI50 (SW-620): > 100 µM (inactive)
- GI50 (EKVX): > 100 µM (inactive)
- GI50 (Hs-578T): > 100 µM (inactive)
- GI50 (A549): > 100 µM (inactive)
- GI50 (SK-MEL-5): > 100 µM (inactive)
- GI50 (LOX IMVI): > 100 µM (inactive)
- GI50 (CCRF-CEM): > 100 µM (inactive)
- GI50 (NCI-H460): > 100 µM (inactive)
- GI50 (DU-145): > 100 µM (inactive)
- GI50 (Malme-3M): > 100 µM (inactive)
- GI50 (786-0): > 100 µM (inactive)
- GI50 (NCI-H522): > 100 µM (inactive)
- GI50 (SF-295): > 100 µM (inactive)
- GI50 (SF-268): > 100 µM (inactive)
- GI50 (TK-10): > 100 µM (inactive)
- GI50 (HOP-62): > 100 µM (inactive)
- GI50 (K562): > 100 µM (inactive)
- GI50 (SF-539): > 100 µM (inactive)
- GI50 (NCI-H226): > 100 µM (inactive)
- GI50 (HL-60): > 100 µM (inactive)
- GI50 (NCI-H23): > 100 µM (inactive)
- GI50 (OVCAR-8): > 100 µM (inactive)
- GI50 (ACHN): > 100 µM (inactive)
- GI50 (IGROV-1): > 100 µM (inactive)
- GI50 (SR): > 100 µM (inactive)
- GI50 (OVCAR-5): > 100 µM (inactive)
- GI50 (MDA-N): > 100 µM (inactive)
- GI50 (HCT-116): > 100 µM (inactive)
- GI50 (HCT-15): > 100 µM
- GI50 (SN12C): > 100 µM (inactive)
- GI50 (COLO 205): > 100 µM (inactive)
- GI50 (SNB-19): > 100 µM (inactive)
- GI50 (CAKI-1): > 100 µM (inactive)
- GI50 (UACC-257): > 100 µM (inactive)
- GI50 (U-251): > 100 µM (inactive)
- GI50 (HT-29): > 100 µM (inactive)
